# Legend:
# Experiment in all cases: microbe, parasite or virus in culture
# M. bovis BCG = format: cell-based; conditions: Mycobacterium tuberculosis variant bovis BCG
# M. tuberculosis H37Rv = format: cell-based; conditions: Mycobacterium tuberculosis
# M. smegmatis mc^2155 = format: cell-based, Mycobacterium smegmatis; conditions: Mycolicibacterium smegmatis
structure (smiles),measurement,setting,value
"NNC(=O)c1ccncc1 [Isoniazid, isoniazid]",MIC,M. bovis BCG,0.05 µg/mL
same,MIC,M. tuberculosis H37Rv,0.05 µg/mL
same,MIC,M. smegmatis mc^2155,16 µg/mL

# — US9128088B2 (priority 2008, dated 2015)
